Laboratory results taken from ChEMBL document CHEMBL4251568, “A routinely used protein staining dye acts as an inhibitor of wild type and mutant alpha-synuclein aggregation and modulator of neurotoxicity” (Eur J Med Chem, 2018).

Columns and labels:
[1] = Cytotoxicity against human SH-SY5Y cells assessed as cell viability after 24 hrs by MTT assay; format: cell-based; details: read-out: Activity
SH-SY5Y = experiment: Cytotoxicity against human SH-SY5Y cells assessed as cell viability after 24 hrs by LDH release assay; format: cell-based

Row | Compound | viability at 24 h [1] | Activity (SH-SY5Y)
1 | CCOc1ccc(Nc2ccc(C(=C3C=CC(=[N+](CC)Cc4cccc(S(=O)(=O)[O-])c4)C=C3)c3ccc(N(CC)Cc4cccc(S(=O)(=O)[O-])c4)cc3)cc2)cc1.[Na+] | 99% | Non-Toxic
2 | CCOc1ccc(Nc2ccc(/C(=C3C=C/C(=[N+](/CC)Cc4cccc(S(=O)(=O)[O-])c4)C=C/3C)c3ccc(N(CC)Cc4cccc(S(=O)(=O)[O-])c4)cc3C)cc2)cc1.[Na+] [BRILLIANT BLUE G] | 19% | Toxic
